Test results published in ChEMBL document CHEMBL6083293, “Novel Benzimidazole Derivatives as Potent Inhibitors of Microsomal Prostaglandin E2 Synthase 1 for the Potential Treatment of Inflammation, Pain, and Fever” (J Med Chem, 2024).
Active and inactive are the calls of the source. The calls are words filed in the database; no cut-off is given here.

Experiments:
[1] = Metabolic stability in guinea pig liver microsome assessed as half life; type: ADME, Cavia porcellus; conditions: liver microsomes
[2] = Metabolic stability in guinea pig liver microsome assessed as intrinsic clearance; type: ADME, Cavia porcellus; conditions: liver microsomes, read-out: CLH
[3] = Metabolic stability in human liver microsome assessed as intrinsic clearance; type: ADME; conditions: liver microsomes, read-out: CLH
[4] = Metabolic stability in human liver microsome assessed as half life; type: ADME; conditions: liver microsomes
[5] = Volume of distribution at steady state in guinea pig at 2 mg/kg, iv; type: ADME, organism-based, Cavia porcellus; conditions: in vivo, read-out: Vdss
[6] = Half life in guinea pig at 20 mg/kg, po; type: ADME, organism-based, Cavia porcellus; conditions: in vivo
[7] = Cmax in guinea pig at 20 mg/kg, po; type: ADME, organism-based, Cavia porcellus; conditions: in vivo
[8] = Half life in guinea pig at 2 mg/kg, iv; type: ADME, organism-based, Cavia porcellus; conditions: in vivo
[9] = AUC (0 to infinity) in guinea pig at 20 mg/kg, po; type: ADME, organism-based, Cavia porcellus; conditions: in vivo
[10] = Oral bioavailability in guinea pig at 20 mg/kg; type: ADME, organism-based, Cavia porcellus; conditions: in vivo
[11] = Clearance in guinea pig at 2 mg/kg, iv; type: ADME, organism-based, Cavia porcellus; conditions: in vivo
[12] = Initial plasma concentration in guinea pig at 2 mg/kg, iv; type: ADME, organism-based, Cavia porcellus
[13] = target: T1, Prostaglandin G/H synthase 1 (Ovis aries) (UniProt P05979); assay: Inhibition of ovine COX-1 at 1 uM using arachidonic acid as substrate preincubated for 6 mins followed by substrate addition and measured after 10 mins by RP-HPLC analysis; conditions: time 16.0 min
T1 sequence (whole entry): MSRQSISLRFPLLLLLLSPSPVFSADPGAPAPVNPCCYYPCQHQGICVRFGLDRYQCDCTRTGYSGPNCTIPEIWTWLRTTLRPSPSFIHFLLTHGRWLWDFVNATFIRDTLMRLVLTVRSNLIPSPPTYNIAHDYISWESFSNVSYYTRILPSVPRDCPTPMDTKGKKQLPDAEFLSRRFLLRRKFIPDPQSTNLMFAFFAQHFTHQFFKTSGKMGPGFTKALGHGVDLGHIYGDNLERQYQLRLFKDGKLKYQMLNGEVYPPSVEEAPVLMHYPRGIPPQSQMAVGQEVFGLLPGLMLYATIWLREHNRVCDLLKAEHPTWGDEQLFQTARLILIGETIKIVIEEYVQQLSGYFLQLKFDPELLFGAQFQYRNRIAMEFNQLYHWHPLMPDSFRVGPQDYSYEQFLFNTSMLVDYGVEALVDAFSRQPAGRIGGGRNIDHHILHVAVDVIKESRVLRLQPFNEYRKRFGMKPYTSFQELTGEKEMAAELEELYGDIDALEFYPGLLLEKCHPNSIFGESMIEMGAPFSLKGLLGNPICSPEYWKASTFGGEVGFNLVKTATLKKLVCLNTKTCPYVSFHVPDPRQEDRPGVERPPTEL

[14] = Cytotoxicity against human MDM cells assessed as metabolic activity at 3 uM measured after 48 hrs by MTT assay; type: toxicity, cell-based
[15] = Toxicity in guinea pig assessed as increase in sinusoidal capillary diameter at 30 mg/kg, po; type: organism-based, Cavia porcellus; conditions: in vivo
Cavia porcellus [16] = assay: Anti-hyperalgesic activity against carrageenan-induced guinea pig mechanical hyperalgesia model at 30 mg/kg, po; type: functional, organism-based
Cavia porcellus [17] = assay: Anti-inflammatory activity against carrageenan-induced paw edema in guinea pig assessed as inhibition of edema formation at 30 mg/kg, po measured at 240 mins; type: functional; conditions: 4 h
[18] = target: T2, Polyunsaturated fatty acid 5-lipoxygenase (Homo sapiens) (UniProt P09917); assay: Inhibition of human recombinant 5-LOX expressed in Escherichia coli BL21(DE3) at 1 uM using arachidonic acid as substrate preincubated with compound for 15 mins followed by substrate and CaCl2 addition measured after 10 mins by RP-HPLC analysis; conditions: time 25.0 min
T2 sequence (whole entry): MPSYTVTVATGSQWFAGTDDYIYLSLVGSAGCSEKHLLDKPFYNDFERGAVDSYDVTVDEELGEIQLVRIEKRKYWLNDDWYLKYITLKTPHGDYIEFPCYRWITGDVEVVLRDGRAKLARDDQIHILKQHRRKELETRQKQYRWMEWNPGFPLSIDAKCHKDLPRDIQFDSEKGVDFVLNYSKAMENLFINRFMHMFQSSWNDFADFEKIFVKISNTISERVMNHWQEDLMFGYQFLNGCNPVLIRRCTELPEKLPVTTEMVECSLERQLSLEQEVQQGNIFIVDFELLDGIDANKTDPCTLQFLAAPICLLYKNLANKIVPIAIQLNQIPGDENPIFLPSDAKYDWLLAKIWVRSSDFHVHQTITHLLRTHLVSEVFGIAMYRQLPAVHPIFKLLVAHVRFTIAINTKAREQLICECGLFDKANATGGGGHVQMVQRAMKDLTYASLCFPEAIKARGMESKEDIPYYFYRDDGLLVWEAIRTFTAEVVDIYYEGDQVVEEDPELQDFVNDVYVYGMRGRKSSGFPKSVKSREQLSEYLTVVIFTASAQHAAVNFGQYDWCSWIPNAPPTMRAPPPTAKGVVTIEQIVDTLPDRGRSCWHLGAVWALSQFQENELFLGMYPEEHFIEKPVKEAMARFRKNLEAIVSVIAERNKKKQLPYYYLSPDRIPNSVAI

Cavia porcellus [19] = assay: Anti-pyretic activity against LPS-induced guinea pig pyresis model assessed as increase in rectal temperature at 30 mg/kg, po measured at 180 to 240 mins; type: functional, organism-based; conditions: time 180-240 min
[20] = Hepatotoxicity in guinea pig assessed as effect on ALT level in plasma at 30 mg/kg, po; type: toxicity, organism-based, Cavia porcellus; conditions: in vivo
Cavia porcellus [21] = assay: Anti-inflammatory activity against carrageenan-induced paw edema in guinea pig assessed as inhibition of edema formation at 30 mg/kg, po measured at 120 mins; type: functional, organism-based
[22] = target: T3, Arachidonate 5-lipoxygenase-activating protein (Homo sapiens) (UniProt P20292); assay: Inhibition of FLAP in calcium ionophore A23187-stimulated human Neutrophil cells at 1 uM preincubated for 15 mins followed by calcium ionophore A23187 stimulation for 10 mins by RP-HPLC analysis; type: cell-based; conditions: time 25.0 min
T3 sequence (whole entry): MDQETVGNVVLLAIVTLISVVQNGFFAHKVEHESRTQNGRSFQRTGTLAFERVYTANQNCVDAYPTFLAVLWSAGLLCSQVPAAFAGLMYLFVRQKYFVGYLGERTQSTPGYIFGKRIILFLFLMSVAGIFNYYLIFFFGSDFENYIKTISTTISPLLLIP

[23] = target: T4, Prostaglandin G/H synthase 2 (Homo sapiens) (UniProt P35354); assay: Inhibition of human recombinant COX-2 at 1 uM using arachidonic acid as substrate preincubated for 6 mins followed by substrate addition and measured after 10 mins by RP-HPLC analysis; conditions: time 16.0 min
T4 sequence (whole entry): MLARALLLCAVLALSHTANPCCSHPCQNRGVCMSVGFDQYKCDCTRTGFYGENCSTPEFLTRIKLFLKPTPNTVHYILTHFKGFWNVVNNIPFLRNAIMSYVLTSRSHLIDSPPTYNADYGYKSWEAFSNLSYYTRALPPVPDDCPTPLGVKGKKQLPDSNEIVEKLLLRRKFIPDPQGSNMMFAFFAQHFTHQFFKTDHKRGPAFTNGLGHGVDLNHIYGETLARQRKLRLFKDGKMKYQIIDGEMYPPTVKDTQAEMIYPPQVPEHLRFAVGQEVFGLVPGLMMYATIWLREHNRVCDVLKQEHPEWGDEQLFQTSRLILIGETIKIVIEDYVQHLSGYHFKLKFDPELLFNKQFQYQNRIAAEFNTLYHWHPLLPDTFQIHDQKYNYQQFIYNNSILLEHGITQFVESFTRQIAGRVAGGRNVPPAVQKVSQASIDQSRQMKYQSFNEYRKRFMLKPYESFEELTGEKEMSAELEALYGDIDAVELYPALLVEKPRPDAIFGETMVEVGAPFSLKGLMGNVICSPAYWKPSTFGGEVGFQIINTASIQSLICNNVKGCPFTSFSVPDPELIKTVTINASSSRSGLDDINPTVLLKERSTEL

[24] = Hepatotoxicity in guinea pig assessed as increase in ALP level in plasma at 30 mg/kg, po; type: toxicity, organism-based, Cavia porcellus; conditions: in vivo
[25] = Cytotoxicity against human MDM cells assessed as LDH release at 3 uM measured after 3 hrs; type: toxicity, cell-based
[26] = Hepatotoxicity in guinea pig assessed as effect on AST level in plasma at 30 mg/kg, po; type: toxicity, organism-based, Cavia porcellus; conditions: in vivo
[27] = Toxicity in guinea pig assessed as increase in number of vacuolated hepatocytes at 30 mg/kg, po; type: organism-based, Cavia porcellus; conditions: in vivo
[28] = Hepatotoxicity in guinea pig assessed as increase in ALP level in plasma at 10 mg/kg, po; type: toxicity, organism-based, Cavia porcellus; conditions: in vivo
Cavia porcellus [29] = assay: Anti-inflammatory activity against carrageenan-induced paw edema in guinea pig assessed as reduction in paw swelling at 10 mg/kg, po measured at 240 mins; type: functional, organism-based
[30] = Toxicity in guinea pig assessed as increase in number of vacuolated hepatocytes at 10 mg/kg, po; type: organism-based, Cavia porcellus; conditions: in vivo
[31] = Toxicity in guinea pig assessed as increase in sinusoidal capillary diameter at 10 mg/kg, po; type: organism-based, Cavia porcellus; conditions: in vivo
Cavia porcellus [32] = assay: Anti-hyperalgesic activity against carrageenan-induced guinea pig mechanical hyperalgesia model at 10 mg/kg, po; type: functional, organism-based
[33] = target: T5, Prostaglandin E synthase (Homo sapiens) (UniProt O14684); assay: Inhibition of mPGES-1 in human M1-like MDM cells assessed as reduction in TXB2 formation at 10 uM; type: cell-based
T5 sequence (whole entry): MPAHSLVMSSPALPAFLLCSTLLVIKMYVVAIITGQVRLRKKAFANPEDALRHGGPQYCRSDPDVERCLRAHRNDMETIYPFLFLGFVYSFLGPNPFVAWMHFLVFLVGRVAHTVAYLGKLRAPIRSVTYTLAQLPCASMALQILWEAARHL

[34] = target: T5, Prostaglandin E synthase (Homo sapiens); assay: Inhibition of mPGES-1 in human M1-like MDM cells assessed as reduction in PGE2 formation at 10 uM; type: cell-based

Row | half-life [1] | microsomal CLint [2] | microsomal CLint [3] | half-life [4] | Vd [5] | half-life [6] | Cmax [7] | half-life [8] | AUC(0-inf) [9] | bioavailability [10] | clearance [11] | C0 [12] | SMILES | further results
1 | 103 min | 13.9 µL/min/mg | 203 µL/min/mg | 6.8 min | – | – | – | – | – | – | – | – | CC(C)(C(=O)NCc1ccc(Cl)c(C(=O)Nc2ccc(-c3nc4cc(C(F)(F)F)ccc4[nH]3)cc2)c1)C(F)(F)F | –
2 | 8.5 min | 163 µL/min/mg | 315 µL/min/mg | 4.4 min | 10 L/kg | 342 min | 49 ng/mL | 336 min | 620 ng·h/mL | 16% | 87.7 mL/min/kg | 733 ng/mL | O=C(Nc1ccc(-c2nc3cc(C(F)(F)F)ccc3[nH]2)cc1)c1cc(CNC(=O)C2(C(F)(F)F)CCC2)ccc1Cl | –
3 | 49.3 min | 28.2 µL/min/mg | 27.4 µL/min/mg | 51.2 min | – | – | – | – | – | – | – | – | CC(C)(C(=O)NCc1ccc(Cl)c(C(=O)Nc2ccc(Cc3nc4cc(C(F)(F)F)ccc4[nH]3)cc2)c1)C(F)(F)F | –
4 | 185 min | < 7.5 µL/min/mg | 45.2 µL/min/mg | 30.7 min | 4.1 L/kg | 288 min | 1370 ng/mL | 234 min | 13800 ng·h/mL | 61% | 14.9 mL/min/kg | 878 ng/mL | O=C(Nc1ccc(-c2nc3cc(C(F)(F)F)ccc3[nH]2)cc1)c1cc(CNC(=O)C2(C(F)(F)F)CC2)ccc1Cl | inhibition [13]: Active; Activity [14]: Non-toxic; Activity [15]: Mild_effect; Activity (Cavia porcellus [16]): Active; inhibition in vivo at 30 mg/kg (Cavia porcellus [17]): 60%; inhibition [18]: Active; Activity (Cavia porcellus [19]): Active; Activity [20]: Non-toxic; Activity (Cavia porcellus [21]): Active; inhibition [22]: Active; inhibition [23]: Active; Activity [24]: Non-toxic; Activity [25]: Non-toxic; Activity [26]: Non-toxic; Activity [27]: Mild_effect
5 | – | – | – | – | – | – | – | – | – | – | – | – | COc1ccc2c(c1)c(CC(=O)O)c(C)n2C(=O)c1ccc(Cl)cc1 [INDOMETHACIN] | Activity [28]: Toxic; Activity (Cavia porcellus [29]): Active; Activity [30]: Non-toxic; Activity [31]: Non-toxic; Activity (Cavia porcellus [32]): Active; inhibition [33]: inactive; inhibition [34]: inactive
6 | 4.6 min | 302 µL/min/mg | 247 µL/min/mg | 5.6 min | – | – | – | – | – | – | – | – | CC(C)(C)C(=O)NCc1ccc(Cl)c(C(=O)Nc2ccc(-c3nc4cc(C(F)(F)F)ccc4[nH]3)cc2)c1 | –
